Measured values reported in article PMC5267425, “Identification of small molecule modulators of HIV-1 Tat and Rev protein accumulation” (Retrovirology, 2017).
Several values for one entry are separate records, joined by “and”; a condition that tells them apart may be missing. Identical values can stand only once.

Test system: cellular gene expression in HeLa rtTA HIV∆Mls cells
Details: 9147791-treated cells, two replicates

## Cc1cc(NCc2cccnc2)n2ncc(-c3ccc(Cl)cc3)c2n1 [Compound 791, 3-(4-chlorophenyl)-5-methyl-N-(3-pyridinylmethyl)pyrazolo[1,5-a]pyrimidin-7-amine]
Gene ACER2
  ACER2 expression level: 0.80 and 0.82
Gene ADO
  ADO expression level: 10.11 and 9.67
Gene AKIRIN2
  AKIRIN2 expression level: 37.74 and 36.76
Gene ALG5
  ALG5 expression level: 17.63 and 17.19
Gene ALKBH8
  ALKBH8 expression level: 2.78 and 2.65
Gene ANKRD40
  ANKRD40 expression level: 18.60 and 17.61
Gene ANKRD50
  ANKRD50 expression level: 8.61 and 9.09
Gene AP3S2
  AP3S2 expression level: 6.99 and 6.84
Gene ARL4D
  ARL4D expression level: 11.90 and 11.09
Gene ARMC10
  ARMC10 expression level: 25.33 and 26.90
Gene ARSJ
  ARSJ expression level: 5.86 and 6.05
Gene ATG4B
  ATG4B expression level: 24.43 and 25.27
Gene ATP6V1B2
  ATP6V1B2 expression level: 44.15 and 44.20
Gene AUP1
  AUP1 expression level: 93.65 and 90.36
Gene AVL9
  AVL9 expression level: 14.40 and 14.91
Gene AXIN1
  AXIN1 expression level: 20.61 and 19.36
Gene B4GALT5
  B4GALT5 expression level: 32.71 and 30.46
Gene BCL7A
  BCL7A expression level: 4.81 and 5.05
Gene BICD1
  BICD1 expression level: 5.82 and 5.80
Gene BIVM
  BIVM expression level: 26.38 and 27.51
Gene BMP2K
  BMP2K expression level: 8.20 and 7.95
Gene C1orf27
  C1orf27 expression level: 10.72 and 10.90
Gene C1orf103
  C1orf103 expression level: 11.43 and 11.72
Gene C1orf131
  C1orf131 expression level: 8.80 and 9.06
Gene C2orf49
  C2orf49 expression level: 7.96 and 8.04
Gene C3orf19
  C3orf19 expression level: 6.85 and 6.46
Gene C4orf27
  C4orf27 expression level: 19.50 and 20.20
Gene C5orf37
  C5orf37 expression level: 8.35 and 8.03
Gene C5orf45
  C5orf45 expression level: 14.96 and 13.97
Gene C5orf51
  C5orf51 expression level: 28.44 and 30.27
Gene C7orf23
  C7orf23 expression level: 28.60 and 29.63
Gene C7orf25
  C7orf25 expression level: 13.24 and 13.90
Gene C9orf6
  C9orf6 expression level: 11.84 and 11.91
Gene C9orf46
  C9orf46 expression level: 19.83 and 20.30
Gene C11orf57
  C11orf57 expression level: 12.07 and 11.50
Gene C11orf73
  C11orf73 expression level: 35.63 and 36.75
Gene C12orf35
  C12orf35 expression level: 5.77 and 5.55
Gene C12orf65
  C12orf65 expression level: 14.51 and 14.73
Gene C12orf73
  C12orf73 expression level: 7.32 and 7.68
Gene C13orf23
  C13orf23 expression level: 12.32 and 12.36
Gene C16orf72
  C16orf72 expression level: 10.69 and 10.57
Gene C17orf80
  C17orf80 expression level: 10.34 and 10.65
Gene C18orf25
  C18orf25 expression level: 6.56 and 6.86
Gene C18orf45
  C18orf45 expression level: 4.86 and 5.04
Gene C19orf55
  C19orf55 expression level: 5.99 and 6.29
Gene CCBL2
  CCBL2 expression level: 14.25 and 13.62
Gene CCDC25
  CCDC25 expression level: 31.76 and 30.83
Gene CCDC92
  CCDC92 expression level: 12.03 and 11.64
Gene CCNJ
  CCNJ expression level: 2.94 and 2.91
Gene CDK4
  CDK4 expression level: 162.09 and 164.93
Gene CDK17
  CDK17 expression level: 8.04 and 8.39
Gene CHCHD4
  CHCHD4 expression level: 19.84 and 19.36
Gene CHN2
  CHN2 expression level: 1.42 and 1.50
Gene CLCN2
  CLCN2 expression level: 5.16 and 5.28
Gene COG1
  COG1 expression level: 10.28 and 10.86
Gene COX19
  COX19 expression level: 6.58 and 7.00
Gene CREB1
  CREB1 expression level: 5.06 and 4.95
Gene CSGALNACT2
  CSGALNACT2 expression level: 10.98 and 11.46
Gene CSNK2A1
  CSNK2A1 expression level: 37.86 and 40.21
Gene CSRNP2
  CSRNP2 expression level: 6.76 and 6.32
Gene CUEDC2
  CUEDC2 expression level: 42.63 and 44.50
Gene DCI
  DCI expression level: 60.10 and 62.67
Gene DCLRE1A
  DCLRE1A expression level: 9.19 and 9.37
Gene DDB2
  DDB2 expression level: 110.42 and 109.59
Gene DDX50
  DDX50 expression level: 29.08 and 28.13
Gene DENND4B
  DENND4B expression level: 17.80 and 17.11
Gene DET1
  DET1 expression level: 3.28 and 3.58
Gene DGKQ
  DGKQ expression level: 6.10 and 5.97
Gene DLG4
  DLG4 expression level: 6.58 and 6.74
Gene DNAJB14
  DNAJB14 expression level: 5.32 and 5.63
Gene DNASE2
  DNASE2 expression level: 67.31 and 73.16
Gene DYM
  DYM expression level: 17.92 and 17.95
Gene EDEM1
  EDEM1 expression level: 13.02 and 13.54
Gene EIF2S3
  EIF2S3 expression level: 260.44 and 268.10
Gene EPRS
  EPRS expression level: 87.21 and 89.05
Gene ESCO1
  ESCO1 expression level: 5.82 and 5.63
Gene ESRRA
  ESRRA expression level: 58.60 and 54.56
Gene ETV6
  ETV6 expression level: 3.21 and 3.17
Gene FAIM3
  FAIM3 expression level: 2.34 and 2.22
Gene FAM83G
  FAM83G expression level: 15.73 and 15.43
Gene FAM102A
  FAM102A expression level: 15.44 and 14.97
Gene FAM107B
  FAM107B expression level: 26.06 and 26.60
Gene FAM119B
  FAM119B expression level: 5.44 and 5.43
Gene FAM176B
  FAM176B expression level: 1.37 and 1.42
Gene FAM179B
  FAM179B expression level: 3.35 and 3.46
Gene FAR1
  FAR1 expression level: 21.55 and 22.22
Gene FBXO22
  FBXO22 expression level: 18.71 and 19.58
Gene FBXW4
  FBXW4 expression level: 11.10 and 10.83
Gene FEM1C
  FEM1C expression level: 5.87 and 6.20
Gene FEZ2
  FEZ2 expression level: 28.49 and 26.84
Gene FLCN
  FLCN expression level: 15.28 and 15.93
Gene FLYWCH1
  FLYWCH1 expression level: 20.36 and 21.57
Gene FOSL2
  FOSL2 expression level: 35.73 and 35.26
Gene FOXF1
  FOXF1 expression level: 7.56 and 7.55
Gene FOXJ2
  FOXJ2 expression level: 9.27 and 9.86
Gene FXYD5
  FXYD5 expression level: 112.40 and 117.32
Gene GATA5
  GATA5 expression level: 1.79 and 1.70
Gene GJD3
  GJD3 expression level: 4.71 and 4.56
Gene GNA13
  GNA13 expression level: 17.15 and 16.92
Gene GORAB
  GORAB expression level: 7.75 and 7.67
Gene GOSR1
  GOSR1 expression level: 11.79 and 11.45
Gene GPC5
  GPC5 expression level: 9.86 and 10.11
Gene GPD1L
  GPD1L expression level: 13.45 and 13.69
Gene GTF2H3
  GTF2H3 expression level: 21.55 and 22.21
Gene HAUS3
  HAUS3 expression level: 7.54 and 8.11
Gene HAUS4
  HAUS4 expression level: 59.72 and 63.77
Gene HDHD2
  HDHD2 expression level: 9.17 and 8.71
Gene HECTD1
  HECTD1 expression level: 31.75 and 32.77
Gene HIF1A
  HIF1A expression level: 79.76 and 77.72
Gene HPS3
  HPS3 expression level: 15.09 and 14.61
Gene HRSP12
  HRSP12 expression level: 13.91 and 14.84
Gene HSD17B1
  HSD17B1 expression level: 4.57 and 4.64
Gene IFNGR1
  IFNGR1 expression level: 18.57 and 18.18
Gene INPP1
  INPP1 expression level: 8.36 and 7.77
Gene IPO13
  IPO13 expression level: 15.99 and 16.09
Gene IQCB1
  IQCB1 expression level: 10.15 and 11.00
Gene KCTD1
  KCTD1 expression level: 4.57 and 4.58
Gene KCTD13
  KCTD13 expression level: 10.32 and 11.29
Gene KIAA0232
  KIAA0232 expression level: 9.33 and 9.86
Gene KIAA0649
  KIAA0649 expression level: 25.63 and 26.16
Gene KIAA0753
  KIAA0753 expression level: 6.64 and 6.86
Gene KRR1
  KRR1 expression level: 19.83 and 18.92
Gene LARS
  LARS expression level: 72.55 and 69.28
Gene LGTN
  LGTN expression level: 39.45 and 39.33
Gene LRP5L
  LRP5L expression level: 3.26 and 3.08
Gene LRPPRC
  LRPPRC expression level: 66.45 and 68.25
